Assays:
[1] = Absorption and emission spectra in solution; assay type: physicochemical
Excerpt: Expectedly, the emission spectrum of TBT-2(1P-DPA), and TBT-2(2P-DPA) both ends below 1000 nm, while the emission maximum of TBT-2(TP-DPA) was 1046 nm when upon 808 nm excitation (FIG. 3d). […] The experimental characterization is in consistency with our theoretical hypothesis, which made TBT-2(TP-DPA) ideal candidates as the template of NIR-II theranostic agents.

[2] = Absolute fluorescence quantum yield in the NIR region; assay type: physicochemical; settings: in toluene, under 808 nm excitation
Protocol: Under 808 nm excitation, the absolute quantum yield of TBT-2(TP-DPA) in the NIR region was determined to be 10.4% in toluene.

absorption ended up to ([1]; in THE solution) [nm]	absorption peak ([1]; in THE solution)	emission wavelength extended to [1] [nm]	emission maximum ([1]; upon 808 nm excitation) [nm]	absolute quantum yield in the NIR region [2] [%]	SMILES
800	580 nm	–	–	–	CCCCC(CC)Cn1nc2c(-c3ccc(N(c4ccc(OC)cc4)c4ccc(OC)cc4)cc3)c3c(c(-c4ccc(N(c5ccc(OC)cc5)c5ccc(OC)cc5)cc4)c2n1)N=S=N3 (stereo not drawn) [TBT-2(1P-DPA)]
–	around 800 nm	~1500	1046	10.4	CCCCC(CC)Cn1nc2c(-c3ccc(-c4ccc(N(c5ccc(OC)cc5)c5ccc(OC)cc5)cc4)s3)c3c(c(-c4ccc(-c5ccc(N(c6ccc(OC)cc6)c6ccc(OC)cc6)cc5)s4)c2n1)N=S=N3 (stereo not drawn) [TBT-2(TP-DPA)]
